Test results reported in article PMC9227578, “Insight into the Molecular Mechanism for the Discrepant Inhibition of Microcystins (MCLR, LA, LF, LW, LY) on Protein Phosphatase 2A” (Toxins, 2022).

Tested on: PP2A
Assay: colorimetric protein phosphatase (PP2A) inhibition assay
Assay type: biochemical
Experimental: The biological toxicity of the typical MCs was evaluated by a colorimetric protein phosphatase inhibition assay modified by Zong et al.. First, PP2A was diluted to 5 U/mL with a buffer solution (50 mM Tris-HCl pH 7.4, 2.0 mM dithiothreitol, 1 mM MnCl2) and 1.0 g/L bovine serum albumin. Then, 10 μL of PP2A and 100 μL of test samples were mixed in a 96-well polystyrene microplate. With gentle shaking, the microtiter plates were kept at 25.0 °C for 15 min, and 90 μL p-nitrophenyl disodium orthophosphate (5 mM) was added. After 1 h, the absorbances at 405 nm were measured in a microplate reader. The inhibition of the test samples on PP2A was calculated by the formula of IPP2A (%) = (Acontrol − Asample)/Acontrol × 100%. Acontrol and Asample were the absorbance of the reference sample ([…]) and the test sample at 405 nm, respectively.

| Substance | inhibition sequence on PP2A | inhibition effect on PP2A |
| --- | --- | --- |
| MCLA | MCLR > MCLW > MCLA > MCLF > MCLY | – |
| MCLF | MCLR > MCLW > MCLA > MCLF > MCLY | – |
| MCLR | MCLR > MCLW > MCLA > MCLF > MCLY | much higher inhibition effect than other MCs |
| MCLY | MCLR > MCLW > MCLA > MCLF > MCLY | lower inhibition |
